In patent US20240358727A1, “MICROSCALE THERMOPHORESIS TO EVALUATE CHANNEL LIPID INTERACTIONS AND METHODS OF TREATING NAV CHANNELS RELATED DISEASES” (Northeastern University, priority 2023, published 2024):

Biological target: T1, Nav1.5 WT (Homo sapiens, UniProt Q14524)
T1 construct: expressed in transfected cells; host or cells: HEK293T cells, lysed; unpurified lysate supernatant used
Experiment: Microscale thermophoresis (MST) binding of diC8-PIP2 to GFP-tagged wild type Nav1.5 in cell lysate
Protocol: The method utilizes cell lysates obtained from transfected/infected cells that are lysed and incubated with varying concentrations of a water-soluble analogue of PIP2 commercially available as diC8-PI(4,5)P2, in a 384 well plate. Other phosphoinositides such as diC8PI(4)P of diC8PI(5)P can also be utilized. After a brief incubation (10-30 mins) samples are loaded onto capillary chips purchased from the company Nanotemper. Samples are run on the Nanotemper Monolith instrument. This instrument is advertised to detect green fluorescent protein (GFP) tagged proteins, however we have also used TFP (teal FP) tagged proteins. The instrument provides a short infra-red laser pulse which produces a short thermal gradient. Protein that is interacting with the lipid migrates differently through this thermal gradient and its movement is evaluated by the fluorescence of the GFP/TFP tag on the protein. Based on the concentration of the dic8-phosphoinositide, this resolves into a sigmoidal relationship that delivers an apparent affinity (Kd) value. A test ligand can be added to this assay at a known concentration that is at or close to its Kd for the channel. A shift in the channel's affinity for PIP2 in this assay can help indicate whether this test compound is a good drug candidate for further biological experiments.
Results. […]

T1 sequence (Q14524 whole entry): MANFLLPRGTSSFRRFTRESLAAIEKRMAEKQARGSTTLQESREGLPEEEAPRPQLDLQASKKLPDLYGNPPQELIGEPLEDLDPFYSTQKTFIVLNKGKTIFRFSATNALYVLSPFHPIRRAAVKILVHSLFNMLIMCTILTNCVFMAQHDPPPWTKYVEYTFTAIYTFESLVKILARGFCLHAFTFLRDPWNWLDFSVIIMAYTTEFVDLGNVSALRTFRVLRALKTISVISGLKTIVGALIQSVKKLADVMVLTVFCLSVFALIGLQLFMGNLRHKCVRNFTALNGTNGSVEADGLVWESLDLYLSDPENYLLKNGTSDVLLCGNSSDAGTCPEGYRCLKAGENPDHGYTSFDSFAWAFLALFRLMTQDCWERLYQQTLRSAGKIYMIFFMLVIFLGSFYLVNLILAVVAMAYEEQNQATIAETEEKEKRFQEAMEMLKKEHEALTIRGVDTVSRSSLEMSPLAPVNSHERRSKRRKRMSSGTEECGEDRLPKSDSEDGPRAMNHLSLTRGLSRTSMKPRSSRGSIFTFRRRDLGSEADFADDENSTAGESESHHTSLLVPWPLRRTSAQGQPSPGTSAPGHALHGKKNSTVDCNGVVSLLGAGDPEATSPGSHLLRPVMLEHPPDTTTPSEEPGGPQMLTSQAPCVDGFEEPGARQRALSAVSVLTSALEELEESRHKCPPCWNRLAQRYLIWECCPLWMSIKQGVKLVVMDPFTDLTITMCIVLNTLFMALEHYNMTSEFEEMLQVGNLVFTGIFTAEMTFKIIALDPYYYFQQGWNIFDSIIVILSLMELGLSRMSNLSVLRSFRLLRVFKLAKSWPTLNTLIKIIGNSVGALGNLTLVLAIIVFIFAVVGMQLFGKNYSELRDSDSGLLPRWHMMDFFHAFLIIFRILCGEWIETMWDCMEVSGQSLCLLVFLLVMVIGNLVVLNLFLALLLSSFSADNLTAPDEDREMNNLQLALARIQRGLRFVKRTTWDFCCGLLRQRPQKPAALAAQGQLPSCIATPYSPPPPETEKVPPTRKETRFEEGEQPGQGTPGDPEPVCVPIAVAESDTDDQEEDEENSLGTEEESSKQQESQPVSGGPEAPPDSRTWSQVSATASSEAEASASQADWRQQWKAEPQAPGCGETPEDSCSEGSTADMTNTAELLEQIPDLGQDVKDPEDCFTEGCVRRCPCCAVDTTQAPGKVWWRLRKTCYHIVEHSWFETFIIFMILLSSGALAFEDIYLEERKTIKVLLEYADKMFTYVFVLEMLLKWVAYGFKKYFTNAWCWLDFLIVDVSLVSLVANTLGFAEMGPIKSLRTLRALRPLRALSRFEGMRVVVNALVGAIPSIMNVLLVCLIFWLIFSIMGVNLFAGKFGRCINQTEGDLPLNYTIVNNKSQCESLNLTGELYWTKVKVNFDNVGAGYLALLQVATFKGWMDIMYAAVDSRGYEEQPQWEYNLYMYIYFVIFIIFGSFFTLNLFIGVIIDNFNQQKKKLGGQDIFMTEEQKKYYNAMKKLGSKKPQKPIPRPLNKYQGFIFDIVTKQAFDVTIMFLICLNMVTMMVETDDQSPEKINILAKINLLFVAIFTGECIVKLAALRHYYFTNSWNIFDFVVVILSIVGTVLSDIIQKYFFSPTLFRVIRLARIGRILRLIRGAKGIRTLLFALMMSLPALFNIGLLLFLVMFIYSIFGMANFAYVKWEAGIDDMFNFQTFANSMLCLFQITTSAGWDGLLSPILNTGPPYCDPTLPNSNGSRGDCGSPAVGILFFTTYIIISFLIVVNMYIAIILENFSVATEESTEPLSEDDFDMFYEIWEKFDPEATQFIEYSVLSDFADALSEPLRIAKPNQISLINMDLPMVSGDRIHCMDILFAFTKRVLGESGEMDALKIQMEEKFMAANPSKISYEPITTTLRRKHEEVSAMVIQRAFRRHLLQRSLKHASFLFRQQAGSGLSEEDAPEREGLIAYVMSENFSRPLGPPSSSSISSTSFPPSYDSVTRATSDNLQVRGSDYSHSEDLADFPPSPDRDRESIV

SMILES: CCCCCCCC(=O)OC[C@H](COP(=O)(O)O[C@@H]1[C@H](O)[C@H](O)[C@@H](OP(=O)(O)O)[C@H](OP(=O)(O)O)[C@H]1O)OC(=O)CCCCCCC [diC8-PIP2]
- Kd: 45 ± 10 nM
